What was measured:
Assay in all cases: Bliss interaction score (quartile over a dose matrix) (fitness difference); higher = more antagonism (negative = synergy)
B. subtilis 168 = system: B. subtilis 168
Method in brief: (§1)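 The Bliss score subtracts expected fitness, the product of the single-drug fitness values, from observed fitness. Fitness is plate-normalised OD595 at entry into stationary phase, relative to the robust no-drug mean and capped at 1, with single-drug fitness inferred from combinations. Summaries are quartiles over technical, biological and donor/recipient replicates.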

S. aureus DSM 20231 = system: S. aureus DSM 20231
Method in brief: as §1

S. aureus Newman = system: S. aureus Newman
Method in brief: as §1

S. pneumoniae D39V = system: S. pneumoniae D39V
Method in brief: as §1
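Also: first quartile when negative (synergy) and third quartile when positive (antagonism).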

Row | Compound | Bliss interaction score (B. subtilis 168) | Bliss interaction score (S. aureus DSM 20231) | Bliss interaction score (S. aureus Newman) | Bliss interaction score (S. pneumoniae D39V)
1 | CC(=O)O[C@H]1C[C@@]2(C)[C@@H](C[C@@H](O)[C@H]3[C@@]4(C)CC[C@@H](O)[C@@H](C)[C@@H]4CC[C@@]32C)/C1=C(\CCC=C(C)C)C(=O)O [Fusidic acid] + Cn1nnc(-c2ccc(-c3ccc(N4C[C@H](CO)OC4=O)cc3F)cn2)n1 [Tedizolid] | -0.131 | -0.0507 | -0.048 | -0.0933
2 | O=C(N[C@H](CO)[C@H](O)c1ccc([N+](=O)[O-])cc1)C(Cl)Cl [Chloramphenicol] + CO[C@@]12[C@H](COC(N)=O)C3=C(C(=O)C(C)=C(N)C3=O)N1C[C@@H]1N[C@@H]12 [MitomycinC] | 0.114 | -0.0503 | 0.102 | -0.0831
3 | N[C@@H]1CONC1=O [CycloserineD] + O=C1CN(/N=C/c2ccc([N+](=O)[O-])o2)C(=O)N1 [Nitrofurantoin] | 0.173 | 0.0785 | -0.0425 | 0.197
4 | CC(=O)OC[C@H]1O[C@@H]([S-])[C@H](OC(C)=O)[C@@H](OC(C)=O)[C@@H]1OC(C)=O.CCP(CC)CC.[Au+] [Auranofin] + CO/N=C(\C(=O)N[C@@H]1C(=O)N2C(C(=O)O)=C(COC(N)=O)CS[C@H]12)c1ccco1 [Cefuroxime] | -0.0911 | -0.239 | 0.0517 | 0.0434
5 | N[C@@H]1CONC1=O [CycloserineD] + Clc1ccc(COC(Cn2ccnc2)c2ccc(Cl)cc2Cl)c(Cl)c1 [Miconazole] | 0.0883 | 0.0763 | -0.0328 | -0.0729
6 | CCC[C@@H]1C[C@@H](C(=O)N[C@@H]([C@H]2O[C@H](SC)[C@H](O)[C@@H](O)[C@H]2O)[C@@H](C)O)N(C)C1 [Lincomycin] + CC[C@H]1OC(=O)[C@H](C)C(=O)[C@H](C)[C@@H](O[C@@H]2O[C@H](C)C[C@H](N(C)C)[C@H]2O)[C@](C)(OC)C[C@@H](C)C(=O)[C@H](C)[C@H]2N(CCCCn3cnc(-c4cccnc4)c3)C(=O)O[C@]12C [Telithromycin] | 0.091 | -0.053 | -0.0488 | -0.171
7 | CC(=O)OC[C@H]1O[C@@H]([S-])[C@H](OC(C)=O)[C@@H](OC(C)=O)[C@@H]1OC(C)=O.CCP(CC)CC.[Au+] [Auranofin] + O=C(O)c1cn(C2CC2)c2cc(N3CCNCC3)c(F)cc2c1=O [Ciprofloxacin] | 0.0472 | 0.0217 | 0.0727 | -0.11
8 | N[C@@H]1CONC1=O [CycloserineD] + CN[C@H](CC(C)C)C(=O)N[C@H]1C(=O)N[C@@H](CC(N)=O)C(=O)N[C@H]2C(=O)N[C@H]3C(=O)N[C@H](C(=O)N[C@H](C(=O)O)c4cc(O)cc(O)c4-c4cc3ccc4O)[C@H](O)c3ccc(c(Cl)c3)Oc3cc2cc(c3O[C@@H]2O[C@H](CO)[C@@H](O)[C@H](O)[C@H]2O[C@H]2C[C@](C)(N)[C@H](O)[C@H](C)O2)Oc2ccc(cc2Cl)[C@H]1O [Vancomycin] | -0.113 | 0.0736 | 0.0656 | -0.069
9 | CC[C@H]1OC(=O)[C@H](C)[C@@H](O[C@H]2C[C@@](C)(OC)[C@@H](O)[C@H](C)O2)[C@H](C)[C@@H](O[C@@H]2O[C@H](C)C[C@H](N(C)C)[C@H]2O)[C@](C)(OC)C[C@@H](C)C(=O)[C@H](C)[C@@H](O)[C@]1(C)O [Clarithromycin] + CC1(C)S[C@@H]2[C@H](NC(=O)Cc3ccccc3)C(=O)N2[C@H]1C(=O)O [PenicillinG] | 0.0431 | -0.0458 | -0.0938 | -0.0413
10 | CC(=O)OC[C@H]1O[C@@H]([S-])[C@H](OC(C)=O)[C@@H](OC(C)=O)[C@@H]1OC(C)=O.CCP(CC)CC.[Au+] [Auranofin] + CC1(C)S[C@@H]2[C@H](NC(=O)Cc3ccccc3)C(=O)N2[C@H]1C(=O)O [PenicillinG] | -0.0513 | 0.0414 | -0.0443 | 0.0454
11 | CC(=O)OC[C@H]1O[C@@H]([S-])[C@H](OC(C)=O)[C@@H](OC(C)=O)[C@@H]1OC(C)=O.CCP(CC)CC.[Au+] [Auranofin] + CN(C)c1cc(NC(=O)CNC(C)(C)C)c(O)c2c1C[C@H]1C[C@H]3[C@H](N(C)C)C(O)=C(C(N)=O)C(=O)[C@@]3(O)C(O)=C1C2=O [Tigecycline] | 0.0508 | -0.0332 | -0.066 | 0.0966
12 | CC(=O)OC[C@H]1O[C@@H]([S-])[C@H](OC(C)=O)[C@@H](OC(C)=O)[C@@H]1OC(C)=O.CCP(CC)CC.[Au+] [Auranofin] + CC[C@H]1OC(=O)[C@H](C)C(=O)[C@H](C)[C@@H](O[C@@H]2O[C@H](C)C[C@H](N(C)C)[C@H]2O)[C@](C)(OC)C[C@@H](C)C(=O)[C@H](C)[C@H]2N(CCCCn3cnc(-c4cccnc4)c3)C(=O)O[C@]12C [Telithromycin] | -0.0304 | 0.0187 | 0.0309 | 0.0324
13 | O=C1CN(/N=C/c2ccc([N+](=O)[O-])o2)C(=O)N1 [Nitrofurantoin] + C/C(=C\C(=O)OCCCCCCCCC(=O)O)C[C@@H]1OC[C@H](C[C@@H]2O[C@H]2[C@@H](C)[C@H](C)O)[C@@H](O)[C@H]1O [Pseudomonic acid] | 0.127 | -0.0197 | -0.0266 | 0.0739
14 | CC(=O)OC[C@H]1O[C@@H]([S-])[C@H](OC(C)=O)[C@@H](OC(C)=O)[C@@H]1OC(C)=O.CCP(CC)CC.[Au+] [Auranofin] + CC[C@H]1OC(=O)[C@H](C)[C@@H](O[C@H]2C[C@@](C)(OC)[C@@H](O)[C@H](C)O2)[C@H](C)[C@@H](O[C@@H]2O[C@H](C)C[C@H](N(C)C)[C@H]2O)[C@](C)(O)C[C@@H](C)C(=O)[C@H](C)[C@@H](O)[C@]1(C)O [Erythromycin] | 0.0564 | 0.0169 | 0.0459 | 0.0643
15 | CC(=O)O[C@H]1C[C@@]2(C)[C@@H](C[C@@H](O)[C@H]3[C@@]4(C)CC[C@@H](O)[C@@H](C)[C@@H]4CC[C@@]32C)/C1=C(\CCC=C(C)C)C(=O)O [Fusidic acid] + COc1cc(Cc2cnc(N)nc2N)cc(OC)c1OC [Trimethoprim] | 0.112 | 0.0265 | 0.0427 | -0.0871
16 | CC(=O)OC[C@H]1O[C@@H]([S-])[C@H](OC(C)=O)[C@@H](OC(C)=O)[C@@H]1OC(C)=O.CCP(CC)CC.[Au+] [Auranofin] + CN[C@H](CC(C)C)C(=O)N[C@H]1C(=O)N[C@@H](CC(N)=O)C(=O)N[C@H]2C(=O)N[C@H]3C(=O)N[C@H](C(=O)N[C@H](C(=O)O)c4cc(O)cc(O)c4-c4cc3ccc4O)[C@H](O[C@H]3C[C@](C)(N)[C@@H](O)[C@H](C)O3)c3ccc(c(Cl)c3)Oc3cc2cc(c3O[C@@H]2O[C@H](CO)[C@@H](O)[C@H](O)[C@H]2O[C@H]2C[C@](C)(NCc3ccc(-c4ccc(Cl)cc4)cc3)[C@@H](O)[C@H](C)O2)Oc2ccc(cc2Cl)[C@H]1O [Oritavancin] | 0.0311 | 0.0219 | 0.0771 | 0.0463
17 | CC(=O)OC[C@H]1O[C@@H]([S-])[C@H](OC(C)=O)[C@@H](OC(C)=O)[C@@H]1OC(C)=O.CCP(CC)CC.[Au+] [Auranofin] + Cn1nnc(-c2ccc(-c3ccc(N4C[C@H](CO)OC4=O)cc3F)cn2)n1 [Tedizolid] | -0.0317 | -0.0334 | -0.108 | 0.0602
18 | CC[C@H]1OC(=O)[C@H](C)[C@@H](O[C@H]2C[C@@](C)(OC)[C@@H](O)[C@H](C)O2)[C@H](C)[C@@H](O[C@@H]2O[C@H](C)C[C@H](N(C)C)[C@H]2O)[C@](C)(OC)C[C@@H](C)C(=O)[C@H](C)[C@@H](O)[C@]1(C)O [Clarithromycin] + CO[C@@H]1[C@@H](OC(N)=O)[C@@H](O)[C@H](Oc2ccc3c(O)c(NC(=O)c4ccc(O)c(CC=C(C)C)c4)c(=O)oc3c2C)OC1(C)C [Novobiocin] | 0.125 | -0.0522 | 0.0643 | -0.0569
19 | CC[C@H]1OC(=O)[C@H](C)[C@@H](O[C@H]2C[C@@](C)(OC)[C@@H](O)[C@H](C)O2)[C@H](C)[C@@H](O[C@@H]2O[C@H](C)C[C@H](N(C)C)[C@H]2O)[C@](C)(OC)C[C@@H](C)C(=O)[C@H](C)[C@@H](O)[C@]1(C)O [Clarithromycin] + CC(=O)O[C@H]1C[C@@]2(C)[C@@H](C[C@@H](O)[C@H]3[C@@]4(C)CC[C@@H](O)[C@@H](C)[C@@H]4CC[C@@]32C)/C1=C(\CCC=C(C)C)C(=O)O [Fusidic acid] | -0.059 | 0.0257 | 0.0229 | -0.0728
20 | N[C@@H]1CONC1=O [CycloserineD] + CCC[C@@H]1C[C@@H](C(=O)N[C@@H]([C@H]2O[C@H](SC)[C@H](O)[C@@H](O)[C@H]2O)[C@@H](C)O)N(C)C1 [Lincomycin] | -0.0375 | -0.146 | 0.102 | 0.153
21 | N[C@@H]1CONC1=O [CycloserineD] + CN(N=O)C(=O)N[C@@H](C=O)[C@@H](O)[C@H](O)[C@H](O)CO [Streptozotocin] | 0.0463 | -0.14 | -0.0611 | -0.16

Reference: the supplement of paper PMC10627819
